Measurements from patent US7452887B2, “Quinoline- and isoquinoline-based compounds exhibiting ATP-utilizing enzyme inhibitory activity, and compositions, and uses thereof” (Amphora Discovery Corporation, priority 2004, dated 2008).

target: MAPKAPK2 (Homo sapiens, UniProt P49137); assay: HTS ATP-utilizing enzyme assay, off-chip mobility-shift (Caliper HTS 250); type: biochemical; conditions: test compound 10 μM, kinase listed = active (greater than six-sigma from the mean activity of inactive compounds)
Source text: The following procedures describe the reagent and plate preparation for a HTS of an ATP-utilizing enzyme, such as a protein kinase, run in an off-chip mobility-shift assay format. The following provides an HTS protocol for running a protein kinase HTS screen on a Caliper HTS 250 microfluidics system. The following parameters are dependent on the protein kinase used and can be determined by one skilled in the art as part of a typical assay development process. For example, the peptide substrate used can be identified from the current literature, by screening a peptide library of potential protein kinase substrates, or by other applicable means accepted in the field.
The following table provides typical screen assay parameters appropriate for a Caliper HTS 250 microfluidics system.
The reagents and buffers listed in the following table are generally applicable for developing and running an HTS screen on a human protein kinase using the Caliper HTS 250 system.
The following reagents were prepared using the previously described buffers.
A 2× Master Buffer solution was prepared by combining 200 mL of 1 M HEPES, pH 7.5, 2 mL of 10% Triton X-100, 20 mL of 10% BSA, and 778 mL of H2O.
A TCB Buffer solution was prepared by combining 125 mL of 2× Master Buffer, 10 mL of 0.5 M EDTA, 6.25 mL of 4% coating reagent, 1.01 mL of 100% DMSO, and 107.74 mL H2O.
Assays to determine the kinase inhibitory activity of compounds of the present disclosure were performed using a Caliper HTS 250 microfluidics device, Greiner U-bottom assay plates, a Multidrop for transfer of reagents, and Biomek FX (AMNCBM03) software. Initially, 2.4 μL of a 1 mM solution of a test compound in 100% DMSO was added to a well of the Greiner U-bottom plate. A single Greiner U-bottom plate having 24×16 wells could include multiple test compounds. […] Using the Biomek FX, 10 μL of 0.5 M EDTA was added by the span-8 to wells, indicated as 100% Control and 2.4 μL of 100% DMSO was added by the span-8 to wells, indicated as 0% Control. […] The total reaction volume in each well was 25 μL, and the concentration of the test compound was 10 μM. The assay plate was incubated for 2.5 hrs at 20° C. to 22° C. […] The inhibition of the ATP-utilizing enzyme, such as a particular protein kinase, was determined by measuring the ratio of the peptide substrate to phosphorylated product for each well of the assay plate using the Caliper HTS 250 system.
The use of six-sigma statistical limits represents a conservative method for declaring potential hits among targets. The six-sigma activity, as well as the mean population activity, can be different for each target enzyme.

MAPKAPK2, sequence (P49137 whole entry): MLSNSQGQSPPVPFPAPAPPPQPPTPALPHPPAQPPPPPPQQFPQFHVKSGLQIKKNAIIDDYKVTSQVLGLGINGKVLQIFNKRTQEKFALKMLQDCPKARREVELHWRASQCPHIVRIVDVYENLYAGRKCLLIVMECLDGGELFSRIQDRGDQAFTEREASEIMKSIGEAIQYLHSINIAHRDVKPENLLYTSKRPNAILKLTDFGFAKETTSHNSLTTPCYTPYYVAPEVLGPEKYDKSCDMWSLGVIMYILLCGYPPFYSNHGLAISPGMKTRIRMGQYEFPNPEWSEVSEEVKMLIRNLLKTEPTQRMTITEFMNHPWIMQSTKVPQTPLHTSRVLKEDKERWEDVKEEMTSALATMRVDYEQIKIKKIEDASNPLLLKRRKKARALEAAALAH

Row | SMILES | Activity
1 | CN1CCN(c2ccc(Nc3ccnc4ccc(-c5ccc(C#N)cc5)cc34)nn2)CC1 [4-(4-(6-(4-methylpiperazin-1-yl)pyridazin-3-ylamino)quinolin-6-yl)benzonitrile] | MAPKAPK2
2 | CN1CCN(c2ccc(Nc3ccnc4ccc(-c5cc(Cl)ccc5Cl)cc34)cc2)CC1 [6-(2,5-dichlorophenyl)-N-(4-(4-methylpiperazin-1-yl)phenyl)quinolin-4-amine] | MAPKAPK2
3 | CN(C)Cc1ccccc1-c1ccc2nccc(Nc3ccc(N4CCN(C)CC4)cc3)c2c1 [6-(2-((dimethylamino)methyl)phenyl)-N-(4-(4-methylpiperazin-1-yl)phenyl)quinolin-4-amine] | MAPKAPK2
4 | Cc1cc(-c2ccc3nccc(Nc4ccc(N5CCC(N(C)C)C5)cc4)c3c2)cnc1Cl (stereo not shown) [6-(6-chloro-5-methylpyridin-3-yl)-N-(4-(3-(dimethylamino)pyrrolidin-1-yl)phenyl)quinolin-4-amine] | MAPKAPK2
5 | CCC(CC)N1CCN(c2ccc(Nc3ccnc4ccc(-c5ccccc5)cc34)cc2)CC1 [N-(4-(4-(pentan-3-yl)piperazin-1-yl)phenyl)-6-phenylquinolin-4-amine] | MAPKAPK2
6 | COCCN1CCN(c2ccc(Nc3ccnc4ccc(-c5ccccc5)cc34)cc2)CC1 [N-(4-(4-(2-methoxyethyl)piperazin-1-yl)phenyl)-6-phenylquinolin-4-amine] | MAPKAPK2
7 | CC(C)c1ccc(-c2ccc3nccc(Nc4ccc(N5CCC(N(C)C)C5)cc4)c3c2)cc1 (stereo not shown) [N-(4-(3-(dimethylamino)pyrrolidin-1-yl)phenyl)-6-(4-isopropylphenyl)quinolin-4-amine] | MAPKAPK2
8 | CN(C)C1CCN(c2ccc(Nc3ccnc4ccc(-c5cccc6[nH]ccc56)cc34)cc2)C1 (stereo not shown) [N-(4-(3-(dimethylamino)pyrrolidin-1-yl)phenyl)-6-(1H-indol-4-yl)quinolin-4-amine] | MAPKAPK2
9 | CC(C)N1CCN(c2ccc(Nc3ccnc4ccc(-c5ccc(C#N)cc5)cc34)cc2)CC1 [4-(4-(4-(4-isopropylpiperazin-1-yl)phenylamino)quinolin-6-yl)benzonitrile] | MAPKAPK2
10 | CN1CCC(N(C)c2ccc(Nc3ccnc4ccc(-c5ccc(C#N)cc5)cc34)cc2)C1 (stereo not shown) [4-(4-(4-(methyl(1-methylpyrrolidin-3-yl)amino)phenylamino)quinolin-6-yl)benzonitrile] | MAPKAPK2
11 | CN1CCN(c2ccc(Nc3ccnc4ccc(-c5ccc(Cl)s5)cc34)cc2)CC1 [6-(5-chlorothiophen-2-yl)-N-(4-(4-methylpiperazin-1-yl)phenyl)quinolin-4-amine] | MAPKAPK2
12 | CN(C)[C@H]1CCN(c2ccc(Nc3ccnc4ccc(-c5ccc6ccccc6c5)cc34)cc2)C1 [(S)-N-(4-(3-(dimethylamino)pyrrolidin-1-yl)phenyl)-6-(naphthalen-2-yl)quinolin-4-amine] | MAPKAPK2
13 | CCCN1CCN(c2ccc(Nc3ccnc4ccc(-c5ccc(OC)cc5)cc34)cc2)CC1 [6-(4-methoxyphenyl)-N-(4-(4-propylpiperazin-1-yl)phenyl)quinolin-4-amine] | MAPKAPK2
14 | CN1CCN(c2ccc(Nc3ccnc4ccc(-c5cc(C(F)(F)F)cc(C(F)(F)F)c5)cc34)cc2)CC1 [6-(3,5-bis(trifluoromethyl)phenyl)-N-(4-(4-methylpiperazin-1-yl)phenyl)quinolin-4-amine] | MAPKAPK2
15 | CCN(CC)C1CCN(c2ccc(Nc3ccnc4ccc(-c5ccc(C#N)cc5)cc34)cc2)C1 (stereo not shown) [4-(4-(4-(3-(diethylamino)pyrrolidin-1-yl)phenylamino)quinolin-6-yl)benzonitrile] | MAPKAPK2
16 | CN1CCN(c2ccc(Nc3ccnc4ccc(-c5ccccc5C(N)=O)cc34)cc2)CC1 [2-(4-(4-(4-methylpiperazin-1-yl)phenylamino)quinolin-6-yl)benzamide] | MAPKAPK2
17 | Cc1ccc(-c2ccc3nccc(Nc4ccc(N5CCC(N(C)C)C5)cc4)c3c2)nc1 (stereo not shown) [N-(4-(3-(dimethylamino)pyrrolidin-1-yl)phenyl)-6-(5-methylpyridin-2-yl)quinolin-4-amine] | MAPKAPK2
18 | CN(C)C1CCN(c2ccc(Nc3ccnc4ccc(-c5cncc(C(=O)O)c5)cc34)cc2)C1 (stereo not shown) [5-(4-(4-(3-(dimethylamino)pyrrolidin-1-yl)phenylamino)quinolin-6-yl)nicotinic acid] | MAPKAPK2
19 | CN(C)C1CCN(c2ccc(Nc3ccnc4ccc(-c5cccc(OCc6ccccc6)c5)cc34)cc2)C1 (stereo not shown) [6-(3-(benzyloxy)phenyl)-N-(4-(3-(dimethylamino)pyrrolidin-1-yl)phenyl)quinolin-4-amine] | MAPKAPK2
20 | C=Cc1ccc(-c2ccc3nccc(Nc4ccc(N5CCC(N(C)C)C5)cc4)c3c2)cc1 (stereo not shown) [N-(4-(3-(dimethylamino)pyrrolidin-1-yl)phenyl)-6-(4-vinylphenyl)quinolin-4-amine] | MAPKAPK2
21 | CN(C)[C@@H]1CCN(c2ccc(Nc3ccnc4ccc(-c5ccc6ccccc6c5)cc34)cc2)C1 [(R)-N-(4-(3-(dimethylamino)pyrrolidin-1-yl)phenyl)-6-(naphthalen-2-yl)quinolin-4-amine] | MAPKAPK2
22 | CN(Cc1ccccc1)C1CCN(c2ccc(Nc3ccnc4ccc(-c5ccc(C#N)cc5)cc34)cc2)C1 (stereo not shown) [4-(4-(4-(3-(benzyl(methyl)amino)pyrrolidin-1-yl)phenylamino)quinolin-6-yl)benzonitrile] | MAPKAPK2

Continued, values first:

Row | Activity | SMILES
23 | MAPKAPK2 | CN(C)C1CCN(c2ccc(Nc3ccnc4ccc(-c5ccc(Cl)cc5)cc34)cc2)C1 (stereo not shown) [6-(4-chlorophenyl)-N-(4-(3-(dimethylamino)pyrrolidin-1-yl)phenyl)quinolin-4-amine]
24 | MAPKAPK2 | Cc1cccc(-c2ccc3nccc(Nc4ccc(N5CCC(N(C)C)C5)cc4)c3c2)c1 (stereo not shown) [N-(4-(3-(dimethylamino)pyrrolidin-1-yl)phenyl)-6-m-tolylquinolin-4-amine]
25 | MAPKAPK2 | COc1cccc(-c2ccc3nccc(Nc4ccc(N5CCC(N(C)C)C5)cc4)c3c2)c1 (stereo not shown) [N-(4-(3-(dimethylamino)pyrrolidin-1-yl)phenyl)-6-(3-methoxyphenyl)quinolin-4-amine]
26 | MAPKAPK2 | CN(C)[C@@H]1CCN(c2ccc(Nc3ccnc4ccc(-c5ccc(Cl)cc5)cc34)cc2)C1 [(R)-6-(4-chlorophenyl)-N-(4-(3-(dimethylamino)pyrrolidin-1-yl)phenyl)quinolin-4-amine]
27 | MAPKAPK2 | CN(C)C1CCN(c2ccc(Nc3ccnc4ccc(-c5ccc6[nH]c(=O)sc6c5)cc34)cc2)C1 (stereo not shown) [6-(4-(4-(3-(dimethylamino)pyrrolidin-1-yl)phenylamino)quinolin-6-yl)benzo[d]thiazol-2(3H)-one]
28 | MAPKAPK2 | Cc1ccc(-c2ccc3nccc(Nc4ccc(N5CCC(N(C)C)C5)cc4)c3c2)cc1Cl (stereo not shown) [6-(3-chloro-4-methylphenyl)-N-(4-(3-(dimethylamino)pyrrolidin-1-yl)phenyl)quinolin-4-amine]
29 | MAPKAPK2 | Cc1cc(-c2ccc3nccc(Nc4ccc(N5CCC(N(C)C)C5)cc4)c3c2)ccc1F (stereo not shown) [N-(4-(3-(dimethylamino)pyrrolidin-1-yl)phenyl)-6-(4-fluoro-3-methylphenyl)quinolin-4-amine]
30 | MAPKAPK2 | CN(C)[C@H]1CCN(c2ccc(Nc3ccnc4ccc(-c5ccc(C#N)cc5)cc34)cc2)C1 [(S)-4-(4-(4-(3-(dimethylamino)pyrrolidin-1-yl)phenylamino)quinolin-6-yl)benzonitrile]
31 | MAPKAPK2 | COc1ccc(-c2ccc3nccc(Nc4ccc(N5CCC(N(C)C)C5)cc4)c3c2)cc1F (stereo not shown) [N-(4-(3-(dimethylamino)pyrrolidin-1-yl)phenyl)-6-(3-fluoro-4-methoxyphenyl)quinolin-4-amine]
32 | MAPKAPK2 | CN(C)C1CCN(c2ccc(Nc3ccnc4ccc(-c5ccc(Cl)nc5)cc34)cc2)C1 (stereo not shown) [6-(6-chloropyridin-3-yl)-N-(4-(3-(dimethylamino)pyrrolidin-1-yl)phenyl)quinolin-4-amine]
33 | MAPKAPK2 | CN(C)C1CCN(c2ccc(Nc3ccnc4ccc(-c5ccc(C#N)c(F)c5)cc34)cc2)C1 (stereo not shown) [4-(4-(4-(3-(dimethylamino)pyrrolidin-1-yl)phenylamino)quinolin-6-yl)-2-fluorobenzonitrile]
34 | MAPKAPK2 | CN(C)C1CCN(c2ccc(Nc3ccnc4ccc(-c5ccc6[nH]ccc6c5)cc34)cc2)C1 (stereo not shown) [N-(4-(3-(dimethylamino)pyrrolidin-1-yl)phenyl)-6-(1H-indol-5-yl)quinolin-4-amine]
